Measured values reported in ChEMBL document CHEMBL1148171, “Flavonoids from Koelreuteria henryi and other sources as protein-tyrosine kinase inhibitors” (J Nat Prod, 1993).
In brackets after ≈: the same amount, converted by molar mass.

test: Inhibition of bovine thymus p56-LCK protein tyrosine kinase activity; parameters: species or system Bos taurus

SMILES | IC50 [µg/mL]
O=c1c(O[C@H]2OC[C@@H](O)[C@@H](O)[C@@H]2O)c(-c2ccc(O)cc2)oc2cc(O)cc(O)c12 | 200 (≈ 478 µM)
O=c1cc(-c2ccc(O)cc2)oc2cc(O)cc(O)c12 [APIGENIN] | 4 (≈ 14.8 µM)
O=c1c(O)c(-c2ccccc2O)oc2cc(O)cc(O)c12 [DATISCETIN] | 60 (≈ 210 µM)
Cc1cc(O)c2c(c1)C(=O)c1cc(O)cc(O)c1C2=O [EMODIN] | 10 (≈ 37 µM)
O=c1cc(-c2ccc(O)c(O)c2)oc2cc(O)cc(O)c12 [LUTEOLIN] | 4 (≈ 14 µM)
O=c1c(O)c(-c2ccc(O)c(O)c2)oc2cc(O)cc(O)c12 [QUERCETIN] | 8 (≈ 26.5 µM)

Results, then the compound that gave them:

IC50 [µg/mL] | SMILES
30 (≈ 111 µM) | O=c1c(O)c(-c2ccccc2)oc2cc(O)cc(O)c12 [GALANGIN]
30 (≈ 99.9 µM) | COc1ccc(-c2oc3cc(O)cc(O)c3c(=O)c2O)cc1 [KAEMPFERIDE]
400 (≈ 925 µM) | C[C@H]1O[C@H](Oc2c(-c3ccc(O)cc3)oc3cc(O)cc(O)c3c2=O)[C@@H](O)[C@@H](O)[C@@H]1O [KAEMPFEROL-3-O-RHAMNOSIDE]
8 (≈ 27.9 µM) | O=c1c(O)c(-c2ccc(O)cc2)oc2cc(O)cc(O)c12 [KAEMPFEROL]
50 (≈ 165 µM) | O=c1c(O)c(-c2ccc(O)cc2O)oc2cc(O)cc(O)c12 [MORIN]
10 (≈ 31.4 µM) | O=c1c(O)c(-c2cc(O)c(O)c(O)c2)oc2cc(O)cc(O)c12 [MYRICETIN]
5 (≈ 18.5 µM) | O=c1c(O)c(-c2ccc(O)cc2)oc2cc(O)ccc12 [RESOKAEMPFEROL]
